TGI data for 25 molecules are collected here from PubChem BioAssay (NCI).

Structures are written as SMILES.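 Grown in 96-well plates, cells were treated for 48 hours with each compound at five concentrations. Insufficient inhibition: endpoint recorded as highest concentration tested. TGI is the concentration that stops growth completely.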 Where a SMILES comes first, the peptide text is derived from it. The star is where a group is joined. Boc = CC(C)(C)OC(=O)*; OBn = c1ccc(CO*)cc1

Holding throughout (assay): DTP human tumour cell line panel, 48 h
Test [1] deals with HL-60(TB) leukemia.
Test [2] deals with SF-295 CNS.
The test system of test [3] is NCI/ADR-RES ovarian.
The subject of test [4] is NCI-H522 lung.
For test [5], the system named is HS 578T breast.
Test [6] concerns COLO 205 colon.
In test [7] the test system is CAKI-1 renal.
For test [8], the system named is MCF7 breast.
The subject of test [9] is OVCAR-3 ovarian.
Test [10] relates to MOLT-4 leukemia.
Test [11] concerns K-562 leukemia.

In general, TGI refers to the concentration at which net growth stops.

On to `OCC(CCc1ccccc1I)C1=CCC2(CC1)OCCO2` (stereo not given), for which the TGI in test [1] turned out to be 28.9 µM; in test [2], 32.1 µM; in [3], 48 µM; in [4], 30.3 µM; in test [5] it was 45.4 µM; in test [6], 34.6 µM. In addition, the TGI was 65.2 µM in test [7]; 55.1 µM in test [8]; 41.3 µM in [9]; above 100 µM in test [10]; above 100 µM in test [11].

With `COC(=O)c1c(CC(Cc2ccc3c(c2)CCCC3)C(=O)OC)ccc2c1CCCC2` (stereo not given), the concentration for total growth inhibition (TGI) in test [1] is 42.4 µM; in test [2] it was above 100 µM; in test [3], above 100 µM; in [4], above 100 µM; in test [5] it was above 100 µM; in test [6], above 100 µM. Further, the total growth inhibition concentration (TGI) in test [7], in [8], in test [9], in test [10] and in test [11] was above 100 µM in each case.

As to `COC(=O)C(=O)C(C(=O)C(=O)Nc1cccc([N+](=O)[O-])c1)c1nc2ccc(Cl)cc2[nH]c1=O` (stereo not given), the TGI in [1], in test [2], in test [3], in [4], in test [5] and in test [6] was above 100 µM in each case. In addition, the TGI in test [7], in [8], in test [9] and in test [10] was above 100 µM throughout.

With `Cc1cccc2nc3c(=O)[nH]c(=O)nc-3n(C)c12`, the TGI in test [1] was 45.9 µM; in [2] it was above 100 µM; in [3] it was above 100 µM; in test [4], 87.4 µM; in [5], above 100 µM; in [6] it was above 100 µM. The TGI in test [7], in test [8], in test [9], in test [10] and in [11] was above 100 µM throughout.

As to `NC(=O)c1cc(N(CCO)CCO)c([N+](=O)[O-])cc1[N+](=O)[O-]`, the TGI in [1], in test [2], in [3], in test [4], in [5] and in [6] was above 100 µM each time. Further, the TGI in [7], in [8], in test [9], in test [10] and in test [11] was above 100 µM each time.

Consider `CC(C)CC(NC(=O)OC(C)(C)C)C(=O)NC(CC(=O)OCc1ccccc1)C(=O)OCc1ccccc1` (stereo not drawn) (Boc-Leu-Asp(OBn)-OBn; configuration not given here), for which the TGI in test [1] was above 100 µM; in [2], above 100 µM; in [3] it was above 100 µM; in test [4], 79.2 µM; in test [5], above 100 µM; in [6] it was above 100 µM. Further, the TGI was above 100 µM in [7]; above 100 µM in test [8]; 49.6 µM in test [9]; 76.9 µM in test [10]; above 100 µM in test [11].

For `CC(=O)OC1C2CCC3C(C)(O)C4CC(O)C(C)(C)C4(O)C(O)CC13CC2(C)O` (stereo not given), the TGI in test [1], in test [2], in [3], in test [4], in test [5] and in [6] was above 100 µM each time. Further, the TGI in test [7], in test [8], in test [9] and in test [11] was above 100 µM each time.

Turning to `CCOC(=O)NNC(=O)NCc1ccccc1CNC(=O)NNC(=O)OCC`, the TGI in [1], in test [3], in test [4], in [5], in test [6] and in test [7] was above 100 µM throughout. The TGI in [8], in test [9], in [10] and in test [11] was above 100 µM in each case.

On to `Cc1nc2n(c1/C=C1/C(=O)Nc3ccccc31)CCS2`, for which the TGI in test [1] was above 100 µM; in [2] it was above 100 µM; in test [3] it was above 100 µM; in [4] it was above 100 µM; in test [5], above 100 µM; in test [6] it was 47.6 µM. The TGI in [7], in [8], in test [9], in [10] and in test [11] was above 100 µM throughout.

`Cn1c([C@H](C#N)C(=O)c2cc(O)ccc2[N+](=O)[O-])nc2ccccc21`: the TGI in test [1], in test [2], in test [3], in [4], in test [5] and in test [6] was above 100 µM in each case. Also, the TGI in [7], in test [8], in test [9] and in [10] was above 100 µM each time.

Consider `CC(C)(O)C1CC[C@]2(C)[C@H]3CC[C@@H]4[C@@]5(C)CCCC(C)(C)[C@@H]5CC[C@@]4(C)[C@]3(C)CC[C@@H]12` (stereo not given in full), for which the TGI in test [1], in test [2], in [3], in test [4], in test [5] and in [6] was above 100 µM in each case. The TGI in [7], in test [8], in test [9] and in [10] was above 100 µM throughout.

In the case of `O=CC(O)C(O)C(O)C1CNC(=S)O1` (stereo not given), the TGI in test [1], in test [2], in [3], in test [4], in [5] and in test [6] was above 100 µM in each case. Further, the TGI in test [7], in test [8], in [9], in [10] and in [11] was above 100 µM throughout.

`O=C(Sc1c(-c2ccccc2)c(=O)n(-c2ccccc2)c(=S)n1-c1ccccc1)c1cccs1`: the total growth inhibition concentration (TGI) in test [1], in test [2], in [3], in [4], in [5] and in test [6] was above 100 µM in each case. Moreover, the TGI in test [7] is above 100 µM; in [8], above 100 µM; in test [9], above 100 µM; in [10], 86 µM; in [11] it was above 100 µM.

With `CC(C)=CCOc1cc(NC(=S)c2ccsc2C)ccc1Cl`, the TGI in test [1], in test [2], in test [3], in test [4], in test [5] and in test [6] was above 100 µM in each case. In addition, the TGI in test [7], in test [8], in [9], in test [10] and in test [11] was above 100 µM throughout.

Regarding `C=C[C@@]1(O)CCCC[C@@H]1CC(Sc1ccccc1)Sc1ccccc1`, the TGI in [1] is above 100 µM; in [2], 27.8 µM; in [3], 39.7 µM; in [4], 26.8 µM; in [5] it was 33.6 µM; in test [6], 32.3 µM. Also, the TGI was 30.1 µM in test [7], above 100 µM in test [8], above 100 µM in [10] and above 100 µM in [11].

For `O=C(O)CC[P+](c1ccccc1)(c1ccccc1)c1ccccc1`, the TGI in test [1] is 80.8 µM; in [2], above 100 µM; in [3], above 100 µM; in test [4] it was above 100 µM; in test [5] it was above 100 µM; in [6], 27.4 µM. For the same molecule, the TGI in test [7] is above 100 µM; in test [8], above 100 µM; in [9], 56.5 µM; in test [10], above 100 µM; in test [11], above 100 µM.

Regarding `Cc1ccc(NC2=NCCO2)c2c1CCC2`, the TGI in test [1] was 39.9 µM; in [2], above 100 µM; in [3], 50 µM; in test [4], above 100 µM; in [5] it was above 100 µM; in test [6] it was 83.6 µM. Besides, the TGI in [7] is above 100 µM; in test [8], above 100 µM; in test [9], 67.9 µM; in [10], above 100 µM; in test [11], above 100 µM.

Turning to `O=Nn1c2ccccc2c2cc([N+](=O)[O-])ccc21`, the TGI is above 100 µM in test [1]; 28.5 µM in test [2]; 74 µM in test [3]; 29.1 µM in test [4]; 82.9 µM in test [5]; above 100 µM in test [6]. Besides, the TGI in test [7] is 31.6 µM; in test [8], 58 µM; in test [9], 33.6 µM; in test [10] it was 70.9 µM; in test [11], above 100 µM.

Turning to `CN(C)c1ccc(/C=C/C(=O)N[C@@H]2C(=O)N3[C@@H]2SC(C)(C)[C@@H]3C(=O)O)cc1`, the TGI in test [1], in test [2], in test [3], in [4], in [5] and in [6] was above 100 µM each time. For the same molecule, the TGI in [7], in [8], in test [9], in test [10] and in test [11] was above 100 µM each time.

`O=c1[nH]c(=O)n(COCCO)c2ccsc12`: the TGI in [1], in test [2], in test [3], in test [4], in [5] and in [6] was above 100 µM each time. Besides, the TGI in test [7], in [8], in test [9], in [10] and in [11] was above 100 µM throughout.

In the case of `C[N+](C)(C)C=Nc1cccc2c1CCCC2`, the concentration for total growth inhibition (TGI) in test [1], in [2], in test [3], in test [5], in test [6] and in test [7] was above 100 µM throughout. The TGI in [8], in [9], in test [10] and in test [11] was above 100 µM in each case.

Regarding `COc1ccc(C(Cc2ccccc2)C2NC(=S)NC2=O)cc1` (stereo not given), the TGI in test [1], in test [2], in test [3], in test [4], in test [5] and in test [6] was above 25 µM in each case. The TGI in test [7], in test [8], in test [9], in test [10] and in [11] was above 25 µM each time.

In the case of `COC(=O)c1c(C)cccc1C1CN=NC12Cc1ccc(C)c(C)c1C2=O` (stereo not given), the TGI in test [1] is 28.6 µM; in test [2] it was above 100 µM; in test [3] it was above 100 µM; in test [4], 75.4 µM; in test [5], above 100 µM; in test [7] it was above 100 µM. The TGI in test [8] was above 100 µM; in test [9], above 100 µM; in test [10], 66.4 µM; in [11], above 100 µM.

On to `Nc1ccc(Nc2cc(=O)[nH]c(=O)[nH]2)cc1`, for which the TGI in test [1], in [2], in test [3], in [4], in test [5] and in [7] was above 100 µM each time. In addition, the TGI in test [8], in test [9], in test [10] and in [11] was above 100 µM throughout.

On to `CCOc1ccc(N=NC2C(=O)N(C(=O)CC(=O)Nc3ccccc3)N=C2C)cc1` (stereo not given), for which the TGI in [1] was above 100 µM; in test [2], above 100 µM; in test [3] it was above 100 µM; in test [4], above 100 µM; in [5] it was 87.3 µM; in [6], above 100 µM. The TGI in [7], in test [8], in test [9] and in test [10] was above 100 µM each time.
